The test system of assay [1] is MDA-MB-435 xenograft tumors. Put plainly: MDA-MB-435 xenograft tumor growth with docetaxel (Taxotere). In kind it is in vivo, athymic nude (NCr nu-nu) mice. To be noted: agent alone. The source says: Additionally, since chemotherapy is often the treatment of choice for breast cancer, this experiment tested the ability of the delivery system of this invention to sensitize established human breast cancer xenograft tumors to the commonly used chemotherapeutic agent docetaxel (Taxotere). Xenografts were induced in 4-6 week old female athymic nude (NCr nu-nu) mice by the subcutaneous injection of 2.5×10^6 MDA-MB-435 cells in the mammary fat pad of each animal. Tumors were allowed to develop to a size of 40-50 mm^3. The targeted adenovirus, designated Tf Adp53, was prepared by mixing transferrin with adenovirus carrying DNA encoding wt p53 as described in Example 1. The animals were divided into five groups: (i) Untreated (−) Taxotere; (ii) Taxotere alone, (iii) Untargeted Adp53 (+) Taxotere; (iv) Targeted Adp53 (−) Taxotere; (v) Targeted Adp53 (+) Taxotere. The mice were i.v. injected, via the tail vein, every three to four days with 5×10^10 pt/mouse/injection of either targeted (an admixture of Tf ligand and virus was injected) or untargeted (no ligand) Adp53. A total of 12 injections were administered. The day after the initial viral injection, drug treatment was started. The animals were given Taxotere i.v. at a dose of 7.5 mg/kg every three or four days to a total of 11 injections. The tumor sizes were measured weekly in a blinded manner on a total of 6-8 tumors/group. […]

In assay [2] the test system is B16 mouse melanoma lung metastases. Put plainly: B16 mouse melanoma lung metastases model with cisplatin. To be noted: agent alone. The format is in vivo, C57/BL/6 mice. The source says: FIGS. 5A-H. Chemosensitization of B16 mouse lung metastases to cisplatin (CDDP) by systemically delivered, tumor-targeted adenoviral-p53. The metastases were induced in normal, syngeneic C57/Bl/6 mice by the intravenous injection of 1×10^5 cells. Four days later treatment was begun. Tf-Adp53 and control Tf-AdLacZ were produced at the ratio of 1.5×10^5 Tf molecules/virion. 1×10^10 viral particles/mouse/injection (equivalent to 3×10^8 pfu) of either Adp53, Tf-Adp53 or Tf-AdLacZ were i.v. administered 3 times/week to a total of 12-13 doses. CDDP was intraperitoneally injected at 3-5 mg/kg every 2-4 days for a total of 8-13 doses. The lungs were excised from the animals after one round of treatment. Lungs from animal treated with: No treatment (FIGS. 5A and 5E); CDDP alone (FIG. 5B); untargetted Ad-p53 plus CDDP (FIG. 5C); Tf-LacZ plus CDDP (FIG. 5F); Tf-Adp53 alone (FIG. 5G); Tf-Adp53 plus CDDP (FIGS. 5D and 5H).
The ability of the ligand-targeted, viral p53 delivery system to sensitize tumor cells to chemotherapy in an immune competent animal model was examined. The model chosen for these studies was the B16 mouse melanoma lung metastases model. In multiple experiments, B16 cells were injected, via the tail vein into immune-competent C57/BL/6 mice. In this model, tumor colonies in the lung are easily visible within two-three weeks, due to the expression of melanin by the tumor cells. […]

As to `CC(=O)O[C@@]12CO[C@@H]1C[C@H](O)[C@@]1(C)C(=O)[C@H](O)C3=C(C)[C@@H](OC(=O)[C@H](O)[C@@H](NC(=O)OC(C)(C)C)c4ccccc4)C[C@@](O)([C@@H](OC(=O)c4ccccc4)[C@H]21)C3(C)C` [Taxotere, docetaxel], the “effect on tumor growth” value in assay [1] is listed as “some growth inhibition”.
For the compound `[NH2][Pt]([NH2])([Cl])[Cl]` [CDDP, cisplatin], the “effect on lung tumor colonies compared to untreated animals” value in assay [2] is listed as “some effect”.

The record behind these values is US20080213223A1, “Systemic viral/ligand gene delivery system and gene therapy” (SynerGene Therapeutics, Inc., priority 1998, published 2008).
